Laboratory results reported in publication PMC3391087 (The Journal of Biological Chemistry, 2012).

Biological target: T1, aPIIQGAP1 (C-terminal aPI binding domain of IQGAP1) (Homo sapiens, UniProt P46940)
T1 sequence (P46940 1551-1657): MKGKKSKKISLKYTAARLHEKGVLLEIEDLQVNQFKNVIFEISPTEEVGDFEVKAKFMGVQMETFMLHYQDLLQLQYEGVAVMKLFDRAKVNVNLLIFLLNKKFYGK
Test: TR-FRET competition
Settings: displacement of biotinylated PtdInsP3 (2.5 pmol); 50 nM GST fusion

IC50: ~0.5 µM
Substance: PtdInsP3
